1 molecule from PMC10525516, “Novel NADPH Oxidase-2 Inhibitors as Potential Anti-Inflammatory and Neuroprotective Agents” (Antioxidants, 2023) can be followed below.

As usually defined, the IC50 is the concentration at which inhibition is half-maximal.

One assay deals with T1, Nox2 (Homo sapiens, UniProt P04839).
T1 construct: endogenous in cells
T1 sequence (P04839 2-570 limits assumed): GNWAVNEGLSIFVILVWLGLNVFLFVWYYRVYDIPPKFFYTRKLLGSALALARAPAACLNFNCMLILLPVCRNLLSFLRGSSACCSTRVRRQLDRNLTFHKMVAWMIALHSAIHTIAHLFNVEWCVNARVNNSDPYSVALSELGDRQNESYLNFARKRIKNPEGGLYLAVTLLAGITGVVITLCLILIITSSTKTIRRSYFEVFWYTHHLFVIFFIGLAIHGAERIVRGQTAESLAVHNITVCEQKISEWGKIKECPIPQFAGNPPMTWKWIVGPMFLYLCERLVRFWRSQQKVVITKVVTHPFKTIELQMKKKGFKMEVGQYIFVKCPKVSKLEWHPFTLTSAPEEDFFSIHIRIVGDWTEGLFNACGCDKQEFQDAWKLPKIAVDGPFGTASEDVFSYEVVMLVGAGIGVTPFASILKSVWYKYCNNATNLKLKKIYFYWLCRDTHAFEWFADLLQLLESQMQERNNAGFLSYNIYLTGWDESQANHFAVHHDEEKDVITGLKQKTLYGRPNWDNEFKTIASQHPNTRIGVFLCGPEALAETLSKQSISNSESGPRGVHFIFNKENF
T1 sequence (P13498 2-195 partner limits assumed): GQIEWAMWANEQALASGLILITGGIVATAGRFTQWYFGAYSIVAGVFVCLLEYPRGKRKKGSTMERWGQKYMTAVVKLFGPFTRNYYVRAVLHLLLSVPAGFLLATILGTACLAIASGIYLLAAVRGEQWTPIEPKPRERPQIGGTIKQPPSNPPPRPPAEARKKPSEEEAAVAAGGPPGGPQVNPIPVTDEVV
The assay can be described thus: CBA probe assay of H2O2 production by PMA-activated dHL60 cells. The settings on record: PMA (1 µM)-activated dHL60 cells, 30 min preincubation with inhibitor; read-out: IC50, inhibition of H2O2 production, CBA Assay. It is filed as cell-based. As for the experimental part: (§1) Human promyelocytic leukemia HL60 cells (Sigma-Aldrich) were grown in RPMI 1640 medium (Gibco, 11875-093, Billings, MT, USA) supplemented with 10% FBS (Omega Scientific (Tarzana, CA, USA)), 100 units/mL penicillin, and 100 µg/mL streptomycin, and were incubated at 37 °C and 5% carbon dioxide (CO2). For differentiation to neutrophil-like cells, HL60 cells were pelleted and resuspended in fresh media containing 1 µM of all trans-retinoic acid and incubated for four to five days. Nox2 activation was achieved by treating differentiated HL60 (dHL60) cells with 1 µM PMA [24]. Human leukemia monocytic cells, THP-1, were grown in RPMI 1640 medium + GlutaMAX^TM (Gibco, 61870-036) and supplemented with 10% FBS, 10 mM HEPES, and 1 mM sodium pyruvate and incubated at 37 °C in 5% CO2 environment. To induce differentiation into macrophages, THP-1 cells were treated with PMA (100 ng/mL) for 48 h. To test the efficacy of Nox2 inhibitors, treatment was performed with or without the inhibitor, along with PMA [35].
Plate reader-based analyses of the production of O2^•− and H2O2 by PMA-activated dHL60 cells were performed according to a published protocol with minor modifications. Briefly, for the treatment of dHL60 cells with different concentrations of the compounds, 0.5 mL deep-well 96-well plates were used to dispense and store aliquots of their 10 mM DMSO solutions. Using a Multidrop™ PicoIT dispenser (Thermo Scientific), different volumes of the solutions of candidate Nox inhibitors (10 or 50 mM in DMSO) were injected into the bottom of 0.5 mL V-bottom 96-well plates; then, they were sealed with aluminum foil (VWR, Batavia, IL, USA) using a semiautomatic thermal sealer (BT LabSystems, St. Louis, MO, USA) and stored at −20 °C to reduce freeze-thawing the solutions. The plates with inhibitors were allowed to come to room temperature before the addition of the cell suspensions. dHL60 cells were pelleted and resuspended in HBSS (Invitrogen, Waltham, MA, USA) supplemented with 25 mM HEPES (pH 7.4) and 100 µM DTPA to a cell density of 2 × 10^5 cells/mL. dHL60 cells were added to the V-bottom plates at a volume of 210 µL/well. Next, cells were incubated with inhibitors for 30 min at 37 °C in a CO2-free incubator under ambient oxygen and then transferred to black, clear-bottom 96-well plates (200 µL/well) after incubation. Freshly prepared PMA plus probe solutions in HBSS (5× concentrated, 50 µL/well) included PMA (5 µM) with CBA (500 µM) or with Amplex Red (250 µM) plus HRP (0.5 U/mL) for H2O2 detection, or with HE (50 µM) plus DNA (0.5 mg/mL) for O2^•− detection. Once probes + PMA were added, plates were sealed with sealing film and immediately placed in the pre-warmed plate readers (37 °C). Fluorescence intensities were monitored kinetically from the bottom of the plates every 1.3 min for a period of 2 h using Beckman Coulter (Brea, CA, USA) DTX880 and BMG Labtech (Ortenberg, Germany) FLUOstar Omega plate readers. DMSO alone and DPI (10 µM) were used as negative and positive controls, respectively. […] The IC50 values were determined using at least five independent measurements, each consisting of technical quadruplicates per concentration.

The subject of the next assay is THP-1 cells. Description: qRT-PCR mRNA expression of Nox2 subunits and inflammatory mediators in PMA-treated THP-1 cells. The class given is cell-based, human. The settings on record: 3 µM, 48 h with PMA 100 ng/mL. As for the experimental part:
as §1
mRNA expression analysis was performed as previously described. Briefly, THP-1 cells were treated with PMA (100 ng/mL) with or without the Nox2 inhibitor TG15-132 (3.0 µM) for 48 h. RNA extraction was done using the Quick-RNA miniprep kit (cat. no. R1055, Zymo Research, Irvine, CA, USA) and followed by cDNA synthesis using the qScript cDNA superMix kit (cat. no. 84035, Quantabio, Beverly, MA, USA). Quantitative real-time PCR was performed using specific primers designed to amplify target genes (Table 2). Data obtained were analyzed and converted into fold changes in expression with respect to vehicle-treated cells.
In general terms: Quantitative PCR measures a nucleic acid by following its amplification.

Each structure is given as a SMILES string.

In the case of `CN(C)CCCn1c(SCCc2c[nH]c3ccccc23)nc2ccc(F)cc2c1=O` [TG15-132], on Nox2, the IC50 came to 4.3 ± 1.3 µM. In addition, in the assay with THP-1 cells, the “mRNA expression vs PMA-treated cells, additional experiment (Figure 7B)” value was “statistically significant reduction in the expression of p47^phox, IL-1β, and TNF”; the “mRNA expression vs cells treated with PMA alone (Figure 7A)” value was “reduced the expression of gp91^phox, p47^phox, p67^phox, IL-1β, and TNF”.
